# Target: SARS2 coronavirus 3CL protease (Severe acute respiratory syndrome coronavirus 2, UniProt P0DTD1)
# Assay: biochemical
# Details: 5 nM enzyme, 30 min pre-incubation with compound, 15 μM peptide substrate, 4 h at room temperature; read-out: FRET Potency (nM); IC50 values in the SARS2 3CLPro FRET assay
row,SMILES,IC50 [nM]
1,"C[C@@H]1C[C@@H](C[C@H](NC(=O)c2cc(F)ccc2NC(=O)C2(C(F)(F)F)CC2)C(=O)C(=O)NC2CC2)C(=O)N1 [Example 25, N-[(1S)-3-(cyclopropylamino)-1-[[(3S,5R)-5-methyl-2-oxo-pyrrolidin-3-yl]methyl]-2,3-dioxo-propyl]-5-fluoro-2-[[1-(trifluoromethyl)cyclopropane-carbonyl]amino]benzamide]",18.1
2,"CNC(=O)C(=O)[C@H](C[C@@H]1C[C@@H](C(F)(F)F)NC1=O)NC(=O)c1cc(Cl)cnc1NC(=O)c1cccc(C(F)(F)F)c1 [Example 43, 5-chloro-N-[(1S)-3-(methylamino)-2,3-dioxo-1-[[(3R,5S)-2-oxo-5-(trifluoromethyl)pyrrolidin-3-yl]methyl]propyl]-2-[[3-(trifluoromethyl)benzoyl]amino]pyridine-3-carboxamide]",9.6
3,"[2H]C([2H])([2H])OC(=O)Nc1ccc(Cl)cc1C(=O)N[C@@H](C[C@@H]1CCNC1=O)C(=O)C(=O)NC [Example 108, trideuteriomethyl N-[4-chloro-2-[[(1S)-3-(methylamino)-2,3-dioxo-1-[[(3S)-2-oxopyrrolidin-3-yl]methyl]propyl]carbamoyl]phenyl]carbamate]",4.8
4,"CNC(=O)C(=O)[C@H](C[C@@H]1CCNC1=O)NC(=O)c1cc(Cl)ccc1NC(=O)[C@H]1CC1(F)F [Example 143, 5-chloro-2-[[(1R)-2,2-difluorocyclopropanecarbonyl]amino]-N-[(1S)-3-(methylamino)-2,3-dioxo-1-[[(3S)-2-oxopyrrolidin-3-yl]methyl]propyl]benzamide]",3
5,"CNC(=O)C(=O)[C@H](C[C@@H]1C[C@@H](C)NC1=O)NC(=O)c1cc(Cl)cnc1NC(=O)C12CC(F)(C1)C2 [Example 50, 5-chloro-2-[(3-fluorobicyclo[1.1.1]pentane-1-carbonyl)amino]-N-[(1S)-3-(methylamino)-1-[[(3S,5R)-5-methyl-2-oxo-pyrrolidin-3-yl]methyl]-2,3-dioxo-propyl]pyridine-3-carboxamide]",8.7
6,"CNC(=O)C(=O)[C@H](C[C@@H]1C[C@@H](C)NC1=O)NC(=O)c1cc(Cl)ccc1NC(=O)C1CC(F)(F)C1 [Example 21, 5-chloro-2-[(3,3-difluorocyclobutanecarbonyl)amino]-N-[(1S)-3-(methylamino)-1-[[(3S,5R)-5-methyl-2-oxo-pyrrolidin-3-yl]methyl]-2,3-dioxo-propyl]benzamide]",24.9
7,CNC(=O)C(=O)[C@H](C[C@@H]1C[C@@H](C)NC1=O)NC(=O)c1cc(Cl)ccc1NC(=O)c1ccnc(C(F)(F)F)c1 [Example 74],6.2
8,"[2H]C([2H])([2H])OC(=O)Nc1ccc(Cl)cc1C(=O)N[C@@H](C[C@@H]1CCNC1=O)C(=O)C(=O)NC1CC1 [Example 124, trideuteriomethyl N-[4-chloro-2-[[(1S)-3-(cyclopropylamino)-2,3-dioxo-1-[[(3S)-2-oxopyrrolidin-3-yl]methyl]propyl]carbamoyl]phenyl]carbamate]",8.2
9,"CNC(=O)C(=O)[C@H](C[C@@H]1C[C@@H](C)NC1=O)NC(=O)c1cc(Cl)ccc1NC(=O)C(C)C [Example 125, 5-chloro-N-[(1S)-3-(methylamino)-1-[[(3S,5R)-5-methyl-2-oxo-pyrrolidin-3-yl]methyl]-2,3-dioxo-propyl]-2-(2-methylpropanoylamino) benzamide]",5.6
10,"CNC(=O)C(=O)[C@H](C[C@@H]1CCNC1=O)NC(=O)c1cc(Cl)ccc1NC(=O)OCC1CC1 [Example 136, cyclopropylmethyl N-[4-chloro-2-[[(1S)-3-(methylamino)-2,3-dioxo-1-[[(3S)-2-oxopyrrolidin-3-yl]methyl]propyl]carbamoyl]phenyl]carbamate]",3.6
11,"CNC(=O)C(=O)[C@H](C[C@@H]1CCNC1=O)NC(=O)c1cc(Cl)ccc1NC(=O)OC(C)C [Example 128, isopropyl N-[4-chloro-2-[[(1S)-3-(methylamino)-2,3-dioxo-1-[[(3S)-2-oxopyrrolidin-3-yl]methyl]propyl]carbamoyl]phenyl]carbamate]",7.2
12,"CNC(=O)C(=O)[C@H](C[C@@H]1C[C@@H](C)NC1=O)NC(=O)c1cc(Cl)ccc1NC(=O)C1CC1C(F)(F)F (stereo partly drawn) [Example 189, 5-chloro-N-[(1S)-3-(methylamino)-1-[[(3S,5R)-5-methyl-2-oxo-pyrrolidin-3-yl]methyl]-2,3-dioxo-propyl]-2-[[2-(trifluoromethyl)cyclopropane-carbonyl]amino]benzamide]",3.5
13,"CNC(=O)C(=O)[C@H](C[C@@H]1C[C@@H](C)NC1=O)NC(=O)c1cc(Cl)ccc1NC(=O)OC [Example 9, methyl (4-chloro-2-(((S)-1-((3S,5R)-5-methyl-2-oxopyrrolidin-3-yl)-4-(methylamino)-3,4-dioxobutan-2-yl)carbamoyl)phenyl)carbamate]",7.3
14,"O=C(NC1CC1)C(=O)[C@H](C[C@@H]1CCNC1=O)NC(=O)c1cc(Cl)ccc1NC(=O)C12CC(F)(C1)C2 [Example 30, N-[4-chloro-2-[[(1S)-3-(cyclopropylamino)-2,3-dioxo-1-[[(3S)-2-oxopyrrolidin-3-yl]methyl]propyl]carbamoyl]phenyl]-3-fluoro-bicyclo[1.1.1]pentane-1-carboxamide]",12.9
15,"CNC(=O)C(=O)C(CC1C[C@@H](C(F)(F)F)NC1=O)NC(=O)c1cc(C#N)ccc1NC(=O)CCC(F)(F)F (stereo partly drawn) [Example 88, 5-cyano-N-[3-(methylamino)-2,3-dioxo-1-[[(5S)-2-oxo-5-(trifluoromethyl)pyrrolidin-3-yl]methyl]propyl]-2-(4,4,4-trifluorobutanoylamino) benzamide]",114
16,"C[C@@H]1C[C@@H](C[C@H](NC(=O)c2cc(F)cnc2NC(=O)C2CC(F)(F)C2)C(=O)C(=O)NC2CC2)C(=O)N1 [Example 23, N-[(1S)-3-(cyclopropylamino)-1-[[(3S,5R)-5-methyl-2-oxo-pyrrolidin-3-yl]methyl]-2,3-dioxo-propyl]-2-[(3,3-difluorocyclobutanecarbonyl)amino]-5-fluoro-pyridine-3-carboxamide]",20.6
17,"C[C@@H]1C[C@@H](C[C@H](NC(=O)c2cc(Cl)ccc2NC(=O)C2CC2)C(=O)C(=O)NC2CC2)C(=O)N1 [Example 145, 5-chloro-2-(cyclopropanecarbonylamino)-N-[(1S)-3-(cyclopropylamino)-1-[[(3S,5R)-5-methyl-2-oxo-pyrrolidin-3-yl]methyl]-2,3-dioxo-propyl]benzamide]",26.8
18,"C[C@@H]1C[C@@H](C[C@H](NC(=O)c2cc(Cl)ccc2NC(=O)C23CC(C(F)(F)F)(C2)C3)C(=O)C(=O)NC2CC2)C(=O)N1 [Example 69, N-[4-chloro-2-[[(1S)-3-(cyclopropylamino)-1-[[(3S,5R)-5-methyl-2-oxo-pyrrolidin-3-yl]methyl]-2,3-dioxo-propyl]carbamoyl]phenyl]-3-(trifluoromethyl)bicyclo[1.1.1] pentane-1-carboxamide]",6.9
19,CNC(=O)C(=O)[C@H](C[C@@H]1CCNC1=O)NC(=O)c1cc(Cl)ccc1NC(=O)C1CC1C(F)(F)F (stereo partly drawn) [Example 175],2.8
20,"CNC(=O)C(=O)[C@H](C[C@@H]1CCNC1=O)NC(=O)c1cc(Cl)ccc1NC(=O)C(C)c1cscn1 (stereo partly drawn) [Example 179, 5-chloro-N-[(1S)-3-(methylamino)-2,3-dioxo-1-[[(3S)-2-oxopyrrolidin-3-yl]methyl]propyl]-2-(2-thiazol-4-ylpropanoylamino)benzamide]",2.5
21,"O=C(NC1CC1)C(=O)[C@H](C[C@@H]1CCCNC1=O)NC(=O)c1cc(Cl)ccc1NC(=O)c1ccnc(C(F)(F)F)c1 [Example 234, N-[4-chloro-2-[[(1S)-3-(cyclopropylamino)-2,3-dioxo-1-[[(3S)-2-oxo-3-piperidyl]methyl]propyl]carbamoyl]phenyl]-2-(trifluoromethyl)pyridine-4-carboxamide]",17.1
22,"CNC(=O)C(=O)[C@H](C[C@@H]1C[C@@H](C)NC1=O)NC(=O)c1cc(Cl)ccc1NC(=O)C(C)C(F)(F)F (stereo partly drawn) [Example 19, 5-chloro-N-[(1S)-3-(methylamino)-1-[[(3S,5R)-5-methyl-2-oxo-pyrrolidin-3-yl]methyl]-2,3-dioxo-propyl]-2-[(3,3,3-trifluoro-2-methyl-propanoyl)amino]benzamide]",28.2
23,"CNC(=O)C(=O)[C@H](C[C@@H]1C[C@@H](C)NC1=O)NC(=O)c1cc(F)c(F)cc1NC(=O)OC1CC1 [Example 141, cyclopropyl N-[4,5-difluoro-2-[[(1S)-3-(methylamino)-1-[[(3S,5R)-5-methyl-2-oxo-pyrrolidin-3-yl]methyl]-2,3-dioxo-propyl]carbamoyl]phenyl] carbamate]",19.8
24,"C[C@@H]1C[C@@H](C[C@H](NC(=O)c2cc(Cl)ccc2NC(=O)[C@@H]2CN(C)C(=O)O2)C(=O)C(=O)NC2CC2)C(=O)N1 [Example 204, (5S)-N-[4-chloro-2-[[(1S)-3-(cyclopropylamino)-1-[[(3S,5R)-5-methyl-2-oxo-pyrrolidin-3-yl]methyl]-2,3-dioxo-propyl]carbamoyl]phenyl]-3-methyl-2-oxo-oxazolidine-5-carboxamide]",4.7
25,"CNC(=O)C(=O)[C@H](C[C@@H]1C[C@@H](C)NC1=O)NC(=O)c1cc(Cl)cc(F)c1NC(=O)c1ccnc(C(F)(F)F)c1 [Example 224, N-[4-chloro-2-fluoro-6-[[(1S)-3-(methylamino)-1-[[(3S,5R)-5-methyl-2-oxo-pyrrolidin-3-yl]methyl]-2,3-dioxo-propyl]carbamoyl]phenyl]-2-(trifluoromethyl)pyridine-4-carboxamide]",7.2
26,O=C(NC1CC1)C(=O)[C@H](C[C@@H]1CCNC1=O)NC(=O)c1cc(Cl)c(F)cc1NC(=O)c1cncc(C(F)(F)F)c1 [Example 79],11.3
27,"C[C@@H]1C[C@@H](C[C@H](NC(=O)c2cc(F)ccc2NC(=O)c2ccnc(C(F)(F)F)c2)C(=O)C(=O)NC2CC2)C(=O)N1 [Example 77, N-[2-[[(1S)-3-(cyclopropylamino)-1-[[(3S,5R)-5-methyl-2-oxo-pyrrolidin-3-yl]methyl]-2,3-dioxo-propyl]carbamoyl]-4-fluoro-phenyl]-2-(trifluoromethyl)pyridine-4-carboxamide]",5.3
